As usually defined, the IC50 is the point on the concentration scale where inhibition reaches its midpoint. Low values mean greater potency in that assay, high ones weaker potency in that assay.

For the assay, the target named is ROCK2 (human) (UniProt O75116). The assay can be described thus: Inhibition of ROCK2 Kinase Activity.
Sequence of ROCK2 (human) (O75116 whole entry, looked up): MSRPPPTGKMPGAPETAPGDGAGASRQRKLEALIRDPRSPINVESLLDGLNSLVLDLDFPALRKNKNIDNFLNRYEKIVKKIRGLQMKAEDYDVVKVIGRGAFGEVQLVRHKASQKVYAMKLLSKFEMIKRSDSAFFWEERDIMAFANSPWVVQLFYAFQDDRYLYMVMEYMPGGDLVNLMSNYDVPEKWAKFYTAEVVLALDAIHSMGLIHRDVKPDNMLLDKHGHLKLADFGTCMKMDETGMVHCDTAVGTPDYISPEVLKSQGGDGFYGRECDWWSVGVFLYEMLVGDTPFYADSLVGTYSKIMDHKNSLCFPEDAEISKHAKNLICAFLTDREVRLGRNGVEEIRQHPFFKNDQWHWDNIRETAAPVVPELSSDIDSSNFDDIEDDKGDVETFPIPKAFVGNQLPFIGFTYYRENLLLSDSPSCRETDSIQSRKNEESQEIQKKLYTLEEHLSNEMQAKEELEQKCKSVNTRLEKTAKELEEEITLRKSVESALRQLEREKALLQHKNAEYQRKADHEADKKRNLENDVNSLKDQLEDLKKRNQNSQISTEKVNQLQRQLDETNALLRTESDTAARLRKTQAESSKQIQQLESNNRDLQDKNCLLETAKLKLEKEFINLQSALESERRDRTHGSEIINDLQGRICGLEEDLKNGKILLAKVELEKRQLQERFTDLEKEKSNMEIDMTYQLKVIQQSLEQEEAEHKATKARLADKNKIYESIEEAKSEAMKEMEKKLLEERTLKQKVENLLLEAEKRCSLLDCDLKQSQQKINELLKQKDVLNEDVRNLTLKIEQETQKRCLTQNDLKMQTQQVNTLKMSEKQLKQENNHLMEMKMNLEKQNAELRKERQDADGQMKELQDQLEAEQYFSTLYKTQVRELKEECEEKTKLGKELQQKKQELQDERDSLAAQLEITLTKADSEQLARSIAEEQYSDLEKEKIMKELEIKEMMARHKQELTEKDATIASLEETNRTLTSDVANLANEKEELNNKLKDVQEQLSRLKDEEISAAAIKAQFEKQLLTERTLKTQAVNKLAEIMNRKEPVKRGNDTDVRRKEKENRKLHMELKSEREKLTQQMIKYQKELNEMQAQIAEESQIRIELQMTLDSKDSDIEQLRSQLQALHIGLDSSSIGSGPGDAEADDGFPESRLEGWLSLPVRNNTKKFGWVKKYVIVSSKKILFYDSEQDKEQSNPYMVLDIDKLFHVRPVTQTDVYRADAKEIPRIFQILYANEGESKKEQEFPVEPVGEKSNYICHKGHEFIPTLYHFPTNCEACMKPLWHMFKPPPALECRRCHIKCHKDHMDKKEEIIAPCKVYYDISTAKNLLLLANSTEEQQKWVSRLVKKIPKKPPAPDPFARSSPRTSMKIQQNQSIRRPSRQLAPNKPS
As to `CN(CC(N)c1ccc(C(=O)Nc2ccncc2)cc1)C(=O)C(C)(C)c1ccc(F)cc1` (centres undefined), the IC50 lay in the range of 500 to 5000 nM.
`N[C@H](CC(=O)N[C@H]1COc2ccccc21)c1ccc(C(=O)Nc2ccncc2)cc1`: the IC50 was in the range of 50 to 500 nM.
Then `COc1ccc(OC)c(CCNC(=O)CC(N)c2ccc(C(=O)Nc3ccncc3)cc2)c1` (centres undefined), with 50 to 500 nM; and `COc1ccc(CC(=O)N(C)CC(N)c2ccc(C(=O)Nc3ccncc3)cc2)c(OC)c1OC` (centres undefined), with 5000 to 50000 nM.
Then `NC(CC(=O)NCCc1ccccc1F)c1ccc(C(=O)Nc2ccncc2)cc1` (centres undefined), with 50 to 500 nM; and `NC(CNC(=O)C1(c2ccc(Cl)c(Cl)c2)CCC1)c1ccc(C(=O)Nc2ccncc2)cc1` (centres undefined), with 50 to 500 nM; and `NC(CC(=O)NCc1ccccc1Cl)c1ccc(C(=O)Nc2ccncc2)cc1` (centres undefined), with 50 to 500 nM.
As to `CCNC(=S)NCC(N)c1ccc(C(=O)Nc2ccncc2)cc1` (centres undefined), the IC50 was in the range of 500 to 5000 nM.
The figure for `CC(Cc1c[nH]c2ccccc12)NC(=O)CC(N)c1ccc(C(=O)Nc2ccncc2)cc1` (centres undefined) is 50 to 500 nM; for `COc1cccc(CC(=O)N(C)CC(N)c2ccc(C(=O)Nc3ccncc3)cc2)c1` (centres undefined) it is 50 to 500 nM.
The compound `NC(CNC(=O)CNC(=O)c1ccco1)c1ccc(C(=O)Nc2ccncc2)cc1` (centres undefined) came in with a half-inhibitory concentration (IC50) of 50 to 500 nM.
The compound `CN(CCc1ccccc1)C(=O)CC(N)c1ccc(C(=O)Nc2ccncc2)cc1` (centres undefined) had an IC50 of 50 to 500 nM.
Then `CN(C)c1ccc(NC(=O)NCC(N)c2ccc(C(=O)Nc3ccncc3)cc2)cc1` (centres undefined), with 50 to 500 nM.
Then `NC(CC(=O)NCc1ccccc1C(F)(F)F)c1ccc(C(=O)Nc2ccncc2)cc1` (centres undefined), with 50 to 500 nM; and `NC(CNC(=O)C1(c2ccc(F)c(F)c2)CCCC1)c1ccc(C(=O)Nc2ccncc2)cc1` (centres undefined), with 50 to 500 nM.
The figure for `CN(CC(N)c1ccc(C(=O)Nc2ccncc2)cc1)C(=O)Cc1cncc(Br)c1` (centres undefined) is 500 to 5000 nM; for `CC(NC(=O)CC(N)c1ccc(C(=O)Nc2ccncc2)cc1)c1ccccc1` (centres undefined) it is 50 to 500 nM.
Turning to `NC(CNC(=O)C1CCOC1)c1ccc(C(=O)Nc2ccncc2)cc1` (centres undefined), the IC50 lay within 500 to 5000 nM.
On to `Cc1ccccc1CC(=O)NCC(N)c1ccc(C(=O)Nc2ccncc2)cc1` (centres undefined), for which the IC50 lay in the range of 50 to 500 nM.
The figure for `CCCCNNC(=O)CC(N)c1ccc(C(=O)Nc2ccncc2)cc1` (centres undefined) is 50 to 500 nM.
`CC(C)(C(=O)N1CCCC1C(N)c1ccc(C(=O)Nc2ccncc2)cc1)c1ccc(Cl)c(Cl)c1` (centres undefined) yielded an IC50 of 500 to 5000 nM.
`NC(CC(=O)NCc1ccc([N+](=O)[O-])cc1)c1ccc(C(=O)Nc2ccncc2)cc1` (centres undefined) yielded a 50% inhibitory concentration (IC50) of 50 to 500 nM.
In the case of `CS(=O)(=O)c1cccc(C(=O)NCC(N)c2ccc(C(=O)Nc3ccncc3)cc2)c1` (centres undefined), the IC50 lay within 500 to 5000 nM.
As for `COC(=O)C(C)NC(=O)CC(N)c1ccc(C(=O)Nc2ccncc2)cc1` (centres undefined), the IC50 is 50 to 500 nM.
`N[C@H](CC(=O)NCc1ccc(F)cc1)c1ccc(C(=O)Nc2ccncc2)cc1` had a half-inhibitory concentration (IC50) of 50 to 500 nM.
`CC(C)(NC(=O)CC(N)c1ccc(C(=O)Nc2ccncc2)cc1)c1ccccc1` (centres undefined): the IC50 was in the range of 50 to 500 nM.
The figure for `NC(CNC(=O)C1CCOc2ccccc21)c1ccc(C(=O)Nc2ccncc2)cc1` (centres undefined) is 50 to 500 nM; for `NC(CC(=O)NCc1cccc2ccccc12)c1ccc(C(=O)Nc2ccncc2)cc1` (centres undefined) it is 50 to 500 nM; for `CN(CC(N)c1ccc(C(=O)Nc2ccncc2)cc1)C(=O)C(c1ccccc1)C1CCCC1` (centres undefined) it is 5000 to 50000 nM.
Take `NC(CC(=O)NCc1ccccn1)c1ccc(C(=O)Nc2ccncc2)cc1` (centres undefined): the IC50 fell in the range of 50 to 500 nM.
As for `COc1cccc(CCNC(=O)CC(N)c2ccc(C(=O)Nc3ccncc3)cc2)c1` (centres undefined), the IC50 is 50 to 500 nM.
`NC(c1ccc(C(=O)Nc2ccncc2)cc1)C1CCCN1C(=O)C(c1ccccc1)C1CCCCC1` (centres undefined) displayed an IC50 of 500 to 5000 nM.
`NC(CC(=O)NCCc1cccs1)c1ccc(C(=O)Nc2ccncc2)cc1` (centres undefined) yielded a 50% inhibitory concentration (IC50) of 50 to 500 nM.
`NC(CC(=O)Nc1ccccc1)c1ccc(C(=O)Nc2ccncc2)cc1` (centres undefined) came in with a half-inhibitory concentration (IC50) of 50 to 500 nM.
Compound `Cc1cccc(CN2CCC(NC(=O)CC(N)c3ccc(C(=O)Nc4ccncc4)cc3)CC2)c1` (centres undefined) gave an IC50 of 50 to 500 nM.
On to `NC(CC(=O)NCc1ccncc1)c1ccc(C(=O)Nc2ccncc2)cc1` (centres undefined), for which the IC50 lay within 50 to 500 nM.
Then `NC(CC(=O)NCc1ccccc1Br)c1ccc(C(=O)Nc2ccncc2)cc1` (centres undefined), with 50 to 500 nM.
The compound `Cc1ccc(C)c(CNC(=O)CC(N)c2ccc(C(=O)Nc3ccncc3)cc2)c1` (centres undefined) gave a half-maximal inhibitory concentration (IC50) of 50 to 500 nM.
Then `NC(c1ccc(C(=O)Nc2ccncc2)cc1)C1CCCN1C(=O)C1(c2ccc(Cl)cc2)CC1` (centres undefined), with 500 to 5000 nM; and `COc1ccc(Cl)cc1NC(=O)NCC(N)c1ccc(C(=O)Nc2ccncc2)cc1` (centres undefined), with 50 to 500 nM; and `NC(CC(=O)NCc1cccc(C(F)(F)F)c1)c1ccc(C(=O)Nc2ccncc2)cc1` (centres undefined), with 50 to 500 nM.
For `NC(CC(=O)NC1CCCc2ccccc21)c1ccc(C(=O)Nc2ccncc2)cc1` (centres undefined), the half-maximal inhibitory concentration (IC50) lay within 50 to 500 nM.
`CC(CNC(=O)CC(N)c1ccc(C(=O)Nc2ccncc2)cc1)c1ccc(Cl)cc1` (centres undefined) had a concentration for half-maximal inhibition (IC50) of 50 to 500 nM.
`NC(CC(=O)NCc1cccc(F)c1)c1ccc(C(=O)Nc2ccncc2)cc1` (centres undefined): the IC50 was in the range of 50 to 500 nM.

The values are drawn from the Kinase Knowledgebase extract (Sharma et al. 2016).
